The term IC50 denotes the concentration needed to halve the response being measured.

Read-outs that look alike come from different tables or passages of the source.

For this assay, the target named is MMP-13CD (catalytic domain of collagenase-3) (Homo sapiens, UniProt P45452). As to the kind of experiment: Thiopeptolide substrate hydrolysis inhibition assay, MMP-13CD. It is filed as biochemical. An excerpt:
Thiopeptolide substrates show virtually no decomposition or hydrolysis at or below neutral pH in the absence of a matrix metalloproteinase enzyme.

[1] abbreviates: Table I, thiopeptolide substrate, HEPES pH 7.0, 22° C., read-out: MMP-13CD IC50.

As for `Cn1c(=O)n(Cc2ccccc2)c(=O)c2cc(C(=O)OCc3ccc(C(F)(F)F)cc3)sc21` [Example 156, 3-Benzyl-1-methyl-2,4-dioxo-1,2,3,4-tetrahydro-thieno[2,3-d]pyrimidine-6-carboxylic acid 4-trifluoromethyl-benzyl ester], under setting [1], the IC50 is 180 nM.
In the case of `Cn1c(=O)n(Cc2ccccc2)c(=O)c2cc(C(=O)OCCN3CCOCC3)sc21` [Example 174, 3-Benzyl-1-methyl-2,4-dioxo-1,2,3,4-tetrahydro-thieno[2,3-d]pyrimidine-6-carboxylic acid 2-morpholin-4-yl-ethyl ester], the IC50 under setting [1] was more than 100000 nM.
In the case of `Cn1c(=O)n(CCN2C(=O)c3ccccc3C2=O)c(=O)c2cc(C(=O)OCc3ccccc3)sc21` [Example 112, 3-[2-(1,3-Dioxo-1,3-dihydro-isoindol-2-yl)-ethyl]-1-methyl-2,4-dioxo-1,2,3,4-tetrahydro-thieno[2,3-d]pyrimidine-6-carboxylic acid benzyl ester], the 50% inhibitory concentration (IC50) under setting [1] stood at 2900 nM.
`COc1cccc(CNC(=O)c2cc3c(=O)n(Cc4ccc(NC(C)=O)cc4)c(=O)n(C)c3s2)c1` [Example 65, 3-(4-Acetylamino-benzyl)-1-methyl-2,4-dioxo-1,2,3,4-tetrahydro-thieno[2,3-d]pyrimidine-6-carboxylic acid 3-methoxy-benzylamide]: the half-maximal inhibitory concentration (IC50) under setting [1] was determined as 53.5 nM.
Still for that read-out and setting: the figure for `Cn1c(=O)n(Cc2ccccc2)c(=O)c2cc(C(=O)NCc3ccccc3)sc21` [Example 11, 3-Benzyl-1-methyl-2,4-dioxo-1,2,3,4-tetrahydro-thieno[2,3-d]pyrimidine-6-carboxylic acid benzyl amide] is 470 nM.
Regarding `COc1cccc(CNC(=O)c2cc3c(=O)n(Cc4ccc(I)cc4)c(=O)n(C)c3s2)c1` [Example 61, 3-(4-Iodo-benzyl)-1-methyl-2,4-dioxo-1,2,3,4-tetrahydro-thieno[2,3-d]pyrimidine-6-carboxylic acid 3-methoxy-benzylamide], the IC50 under setting [1] is 45 nM.
In the case of `Cn1c(=O)n(Cc2ccncc2)c(=O)c2cc(C(=O)OCc3ccccc3)sc21` [Example 308, 1-Methyl-2,4-dioxo-3-pyridin-4-ylmethyl-1,2,3,4-tetrahydro-thieno[2,3-d]pyrimidine-6-carboxylic acid benzyl ester], the IC50 under setting [1] was 7.15 nM.
Regarding `O=C(OCc1ccoc1)c1cc2c(=O)n(Cc3ccccc3)c(=O)[nH]c2s1` [Example 13, 3-Benzyl-2,4-dioxo-1,2,3,4-tetrahydro-thieno[2,3-d]pyrimidine-6-carboxylic acid furan-3-ylmethyl ester], under setting [1], the IC50 turned out to be 18000 nM.
On the same count and under the same terms, next, `CCOCCOCCOC(=O)c1cc2c(=O)n(Cc3ccccc3)c(=O)n(C)c2s1` [Example 177, 3-Benzyl-1-methyl-2,4-dioxo-1,2,3,4-tetrahydro-thieno[2,3-d]pyrimidine-6-carboxylic acid 2-(2-ethoxy-ethoxy)-ethyl ester]: more than 100000 nM; `CCOCCOC(=O)c1cc2c(=O)n(Cc3ccccc3)c(=O)n(C)c2s1` [Example 210, 3-Benzyl-1-methyl-2,4-dioxo-1,2,3,4-tetrahydro-thieno[2,3-d]pyrimidine-6-carboxylic acid 2-ethoxy-ethyl ester]: 1200 nM; `Cn1c(=O)n(CCS(=O)(=O)c2ccc(Cl)cc2)c(=O)c2cc(C(=O)OCc3ccccc3)sc21` [Example 144, 3-[2-(4-Chloro-benzenesulfonyl)-ethyl]-1-methyl-2,4-dioxo-1,2,3,4-tetrahydro-thieno[2,3-d]pyrimidine-6-carboxylic acid benzyl ester]: 3 nM.
With `Cn1c(=O)n(Cc2ccc(C(=O)O)cc2)c(=O)c2cc(C(=O)NCc3ccc(S(C)(=O)=O)cc3)sc21` [Example 81, 4-[6-(4-Methanesulfonyl-benzylcarbamoyl)-1-methyl-2,4-dioxo-1,4-dihydro-2H-thieno[2,3-d]pyrimidin-3-ylmethyl]-benzoic acid], the IC50 under setting [1] was 3900 nM.
As to `Cn1c(=O)n(Cc2ccccc2)c(=O)c2cc(C(=O)NCCc3c[nH]c4ccccc34)sc21` [Example 351, 3-Benzyl-1-methyl-2,4-dioxo-1,2,3,4-tetrahydro-thieno[2,3-d]pyrimidine-6-carboxylic acid[2-(1H-indol-3-yl)-ethyl]-amide], under setting [1], the IC50 worked out at 2000 nM.
With `Cn1c(=O)n(Cc2ccc(C(=O)O)cc2)c(=O)c2cc(C(=O)NCc3ccncc3)sc21` [Example 51, 4-{1-Methyl-2,4-dioxo-6-[(pyridin-4-ylmethyl)-carbamoyl]-1,4-dihydro-2H-thieno[2,3-d]pyrimidin-3-ylmethyl}-benzoic acid; compound with trifluoro-acetic acid], the 50% inhibitory concentration (IC50) under setting [1] was found to be 20.5 nM.
Take `CC(C)Cn1c(=O)c2cc(C(=O)OCc3ccccc3)sc2n(C)c1=O` [Example 135, 3-Isobutyl-1-methyl-2,4-dioxo-1,2,3,4-tetrahydro-thieno[2,3-d]pyrimidine-6-carboxylic acid benzyl ester]: the IC50 under setting [1] is 86 nM.
Regarding `C=C(Cn1c(=O)c2cc(C(=O)OCc3ccccc3)sc2n(C)c1=O)C(=O)O` [Example 115, 3-(2-Carboxy-allyl)-1-methyl-2,4-dioxo-1,2,3,4-tetrahydro-thieno[2,3-d]pyrimidine-6-carboxylic acid benzyl ester], the IC50 under setting [1] worked out at 330 nM.
With `Cn1c(=O)n(Cc2ccccc2)c(=O)c2cc(C(=O)NCc3ccncc3)sc21` [Example 75, 3-Benzyl-1-methyl-2,4-dioxo-1,2,3,4-tetrahydro-thieno[2,3-d]pyrimidine-6-carboxylic acid (pyridin-4-ylmethyl)-amide], the IC50 under setting [1] is 345 nM.
Take `Cn1c(=O)n(CC2CO2)c(=O)c2cc(C(=O)OCc3ccccc3)sc21` (centres unmarked) [Example 119, 1-Methyl-3-oxiranylmethyl-2,4-dioxo-1,2,3,4-tetrahydro-thieno[2,3-d]pyrimidine-6-carboxylic acid benzyl ester]: the IC50 under setting [1] was found to be 510 nM.
`COc1cc(Cn2c(=O)c3cc(C(=O)OCc4ccccc4)sc3n(C)c2=O)cc(OC)c1` [Example 315, 3-(3,5-Dimethoxy-benzyl)-1-methyl-2,4-dioxo-1,2,3,4-tetrahydro-thieno[2,3-d]pyrimidine-6-carboxylic acid benzyl ester]: the concentration for half-maximal inhibition (IC50) under setting [1] came out at 20.5 nM.
`Cn1c(=O)n(Cc2ccccc2)c(=O)c2cc(C(=O)NCc3ccccc3-c3ccccc3)sc21` [Example 323, 3-Benzyl-1-methyl-2,4-dioxo-1,2,3,4-tetrahydro-thieno[2,3-d]pyrimidine-6-carboxylic acid (biphenyl-2-ylmethyl)-amide]: under setting [1], the IC50 is more than 100000 nM.
For `COc1cccc(CNC(=O)c2cc3c(=O)n(Cc4ccc5c(c4)OCC5)c(=O)n(C)c3s2)c1` [Example 85, 3-(2,3-Dihydro-benzofuran-6-ylmethyl)-1-methyl-2,4-dioxo-1,2,3,4-tetrahydro-thieno[2,3-d]pyrimidine-6-carboxylic acid 3-methoxy-benzylamide], the concentration for half-maximal inhibition (IC50) under setting [1] worked out at 47.5 nM.
For `Cn1c(=O)n(Cc2ccccc2)c(=O)c2cc(C(=O)NCc3cccs3)sc21` [Example 344, 3-Benzyl-1-methyl-2,4-dioxo-1,2,3,4-tetrahydro-thieno[2,3-d]pyrimidine-6-carboxylic acid (thiophen-2-ylmethyl)-amide], the IC50 under setting [1] is 3600 nM.
Consider `C#CCn1c(=O)c2cc(C(=O)OCc3ccccc3)sc2n(C)c1=O` [Example 130, 1-Methyl-2,4-dioxo-3-prop-2-ynyl-1,2,3,4-tetrahydro-thieno[2,3-d]pyrimidine-6-carboxylic acid benzyl ester], for which the IC50 under setting [1] was 97 nM.
For the molecule `Cn1c(=O)n(Cc2ccccc2)c(=O)c2cc(C(=O)NCc3ccco3)sc21` [Example 354, 3-Benzyl-1-methyl-2,4-dioxo-1,2,3,4-tetrahydro-thieno[2,3-d]pyrimidine-6-carboxylic acid (furan-2-ylmethyl)-amide], under setting [1], the IC50 was found to be 30000 nM.
For the molecule `O=C(OCc1ccoc1)c1cc2c(=O)n(Cc3ccccc3)c(=O)[nH]c2s1` [Example 71, 3-Benzyl-2,4-dioxo-1,2,3,4-tetrahydro-thieno[2,3-d]pyrimidine-6-carboxylic acid furan-3-ylmethyl ester], under setting [1], the IC50 was found to be 13000 nM.
On the same count and under the same terms, the figure for `Cn1c(=O)n(CCCCCCC#N)c(=O)c2cc(C(=O)OCc3ccccc3)sc21` [Example 107, 3-(6-Cyano-hexyl)-1-methyl-2,4-dioxo-1,2,3,4-tetrahydro-thieno[2,3-d]pyrimidine-6-carboxylic acid benzyl ester] is 2400 nM; for `Cn1c(=O)n(Cc2ccccc2)c(=O)c2cc(C(=O)NCc3cccc(Cl)c3)sc21` [Example 332, 3-Benzyl-1-methyl-2,4-dioxo-1,2,3,4-tetrahydro-thieno[2,3-d]pyrimidine-6-carboxylic acid 3-chloro-benzylamide] it is 1000 nM.
Consider `C=Cc1ccc(Cn2c(=O)c3cc(C(=O)OCc4ccccc4)sc3n(C)c2=O)cc1` [Example 20, 1-Methyl-2,4-dioxo-3-(4-vinyl-benzyl)-1,2,3,4-tetrahydro-thieno[2,3-d]pyrimidine-6-carboxylic acid benzyl ester], for which, for the setting “Table II, micromolar concentration, HEPES pH 7.0, read-out: IC50 MMP-13CD”, the IC50 was determined as 6.5 nM.
Consider `Cc1ccc(CCNC(=O)c2cc3c(=O)n(Cc4ccccc4)c(=O)n(C)c3s2)c(C)c1` [Example 362, 3-Benzyl-1-methyl-2,4-dioxo-1,2,3,4-tetrahydro-thieno[2,3-d]pyrimidine-6-carboxylic acid[2-(2,4-dimethyl-phenyl)-ethyl]-amide], for which the IC50 under setting [1] was more than 100000 nM.
Regarding `COc1cccc(CNC(=O)c2cc3c(=O)n(CCC(=O)c4ccccc4)c(=O)n(C)c3s2)c1` [Example 243, 1-Methyl-2,4-dioxo-3-(3-oxo-3-phenyl-propyl)-1,2,3,4-tetrahydro-thieno[2,3-d]pyrimidine-6-carboxylic acid 3-methoxy-benzylamide], the 50% inhibitory concentration (IC50) under setting [1] was 1400 nM.
As for `COc1cc(CNC(=O)c2cc3c(=O)[nH]c(=O)n(C)c3s2)ccn1` [Example 219, 1-methyl-2,4-dioxo-1,2,3,4-tetrahydro-thieno[2,3-d]pyrimidine-6-carboxylic acid (2-methoxy-pyridin-4-ylmethyl)-amide], under setting [1], the IC50 was 17000 nM.
For the molecule `CCCCC(CC)Cn1c(=O)c2cc(C(=O)NCc3cccc(OC)c3)sc2n(C)c1=O` (centres unmarked) [Example 281], the IC50 under setting [1] is 8900 nM.

Values taken from US20030004172A1, “Fused pyrimidinone matrix metalloproteinase inhibitors” (priority 2001, published 2003).
